Experiments:
Acute Ischemic Stroke = conditions: cited from earlier work
acute ischaemic stroke = conditions: secondary stroke prevention in cerebral stroke patients, aspirin/other antiplatelets/anticoagulant; cited from earlier work
blood coagulation = test: Phase IV open-label study NeuroAid®/aspirin interaction in healthy volunteers, 5 coagulation tests; format: in vivo, human; conditions: 11 healthy volunteers per group
Method: Blood samples of the subjects were collected before they received treatment and 2 and 8 hours after treatment initiation.

[1] = clinical stroke trials, versus placebo

Activated Partial Prothrombine Time, Mean (blood coagulation; T + 2 hours) [s]	D-Dimer, Mean (blood coagulation; T + 2 hours) [µg/mL]	Fibrinogen, Mean (blood coagulation; T + 2 hours) [G/L]	Platelet Aggregation, Mean (blood coagulation; T + 2 hours) [Percentage]	D-Dimer, Mean (blood coagulation; T + 8 hours) [µg/mL]	Fibrinogen, Mean (blood coagulation; T + 8 hours) [G/L]	Platelet Aggregation, Mean (blood coagulation; T + 8 hours) [Percentage]	Activated Partial Prothrombine Time, Mean (blood coagulation; T = 0, before treatment) [s]	D-Dimer, Mean (blood coagulation; T = 0, before treatment) [µg/mL]	Fibrinogen, Mean (blood coagulation; T = 0, before treatment) [G/L]	Platelet Aggregation, Mean (blood coagulation; T = 0, before treatment) [Percentage]	Quick Prothrombine Time, Mean (blood coagulation; T = 0, before treatment) [s]	SMILES	cognitive function as measured by the Mini Mental Status Examination (Acute Ischemic Stroke; [1])	functional outcome as measured by the Barthel Index and Rankin scale (Acute Ischemic Stroke; [1])	neurologic evaluation as measured by the NIH stroke scale (Acute Ischemic Stroke; [1])	complete recovery at 3 months (Acute Ischemic Stroke; oral Citicoline, acute ischemic stroke, Davalos et al. 2002)	improvement effect (acute ischaemic stroke)
–	–	–	–	–	–	–	–	–	–	–	–	C[N+](C)(C)CCOP(=O)(O)OP(=O)([O-])OC[C@H]1O[C@@H](n2ccc(N)nc2=O)[C@H](O)[C@@H]1O [Citicoline, CDP-choline]	significant difference between the groups, favoring citicoline treatment	significant difference between the groups, favoring citicoline treatment	significant difference between the groups, favoring citicoline treatment	improve complete recovery at 3 months	–
39.0	0.16	3.2	62.87	0.16	3.0	48.01	38.8	0.16	3.2	62.82	12.9	CC(=O)Oc1ccccc1C(=O)O [Aspirin alone, Acetylsalicylic Acid]	–	–	–	–	about 1%

From patent US20090162459A1, “Combination Therapy for Treatment of Patients with Neurological Disorders and Cerebral Infarction” (priority 2006, published 2009)
